Assay results from patent publication US7662767B2, “Polynucleotide intercalator interceptors and inhibitors” (Materials Evolution and Development USA, Inc., priority 2000, dated 2010).
Values joined by “and” are separate entries in the source; they are usually repeats but may differ in a detail not shown here. Identical values can stand only once.

Experiments:
[1] = Optical titration (absorbance) of acridine orange with xanthines/purines, Kassoc from delta absorbance; type: binding; details: for Kassoc ± S.E.: binding affinity between acridine orange (10 μM) and compound, 5 mM HEPES pH 7.0, 25±1° C., 0 = no measurable association detected; for complex formation / binding affinity with AO: optical titration
Procedure: A red spectral shift in the optical adsorption maximum of AO upon the addition of a particular xanthine, indicates the possibility of a complex being formed between the two compounds. Spectral shifts can be measured by optical titrations.
Optical titrations (serial additions of various xanthines to a solution of AO) were performed on a Beckman DU-600 Scanning Spectrophotometer (Beckman Instrument Co., New York, N.Y.) using a 3 mL (1-cm light path) quartz cuvette containing 2.0 mL of a […]. The DU600 Spectrophotometer was blanked with 2 mL of a pH 7.0 buffered 5 mM HEPES solution over the full range of wavelengths to be scanned prior to sample analysis. This reduced the need to subtract the background absorbance from the HEPES buffer. Optical absorbance scans were performed over a wavelength range preferably from 400 nm to 550 nm. […] The 10 μM AO solution was scanned before the start of each titration series to quantitatively monitor any changes in the absorbance spectrum. Optical absorbance experiments were performed using aliquots varying in volume from 1:L to 20:L taken from prepared xanthine stock solutions (5 mM to 50 mM) and titrated into the cuvette containing 2.0 mL of the 10 μM AO solution. The solution in the cuvette was then thoroughly mixed by 10 seconds of shaking before scanning. All titrations were performed at room temperature (25±1° C.). The absorbance spectra were measured in 1 nm intervals and stored in digital form. Digitized scan data was converted to a Lotus Spreadsheet file (*.wk1) using a conversion program supplied by the manufacturer (Beckman Instruments Inc.) then imported into a Microsoft Excel 97™ Workbook file (*.xls) and saved in this format for further analysis. Spectral data for each titration was combined and expressed in graphic form (Excel™) (X-axis=wavelength in nm; Y-axis=optical absorbance) for each xanthine titrated with AO. […] Adjusted absorption values were plotted and compared to spectra from non-complexed AO. This allowed for the visualization of an expected spectral shift that occurs when AO forms a complex with a xanthine.
The association constant, Kassoc, may be used to analyze the binding ability of modified xanthines to DNA intercalators. The association constant may be calculated based upon a differential shift in the absorbance spectrum. When the presence of the xanthine caused a spectral shift, a difference absorbance plot or delta plot was obtained. Delta plots were constructed by subtracting the adjusted absorption spectrum of AO in the presence of the xanthine from the initial spectrum of AO alone at each wavelength and for each aliquot of the titration. This procedure allowed for the creation of difference absorption values or delta absorption values. Delta absorption values obtained in this manner (Y-axis=delta absorption) were plotted against wavelength in nm (X-axis). The appearance of a single isobestic point was indicative of only two species present in solution, AO, and an AO complex. Graphic representation allowed for the selection of a wavelength with the maximum sensitivity for determining the association constant. This wavelength was characterized by the greatest positive response in delta absorbance values observed upon addition of each aliquot of xanthine to the AO solution. The AO-xanthine association or binding constant was determined by the following equilibrium expression: I+X≡IX EQUATION 1: […]
Where I represents the intercalator (AO), X represents the interceptor molecule (xanthine), and IX represents the AO-xanthine complex, respectively.

[2] = test system: chicken erythrocyte nuclear chromatin; assay: Blocking of acridine orange intercalation into chicken erythrocyte nuclear chromatin, fluorescence microscopy; set-up: key: 0: no blocking effect; 1: slight blocking; 2: moderate blocking; 3: almost total blocking (very slight green fluorescence detectable); 4: complete blockage (no green fluorescence detectable); details: 10 μM AO
Procedure: Microscope slides coated with chicken erythrocyte were stained with 10 μM AO at three separate areas on the microscope slide as described above. Slides were exposed to […] different xanthies at four different molar ratios for three different periods of time. The xanthines, theophylline, caffeine, 1,3,7,9-tetramethyl uric acid, and aminophylline, were prepared with 10 μM AO at molar ratios of 50:1, 500:1, 2500:1, 5000:1 xanthine to AO in distilled water. Microscope slides coated with chicken erythrocytes were exposed to a mixture of xanthine/AO at each molar ratio for periods of 10 min, 1 min, and 10 seconds under static (non-agitated) conditions. […] Following exposure to the xanthine/AO or to the DNA/AO solutions, the slides were rinsed in distilled water, allowed to dry at room temperature, examined by fluorescence microscopy, and the color of the nuclei recorded. Results were recorded as follows: 0=no blocking effect; 1=slight blocking; 2=moderate blocking; 3=almost total blocking (very slight green fluorescence detectable); 4=complete blockage (no green fluorescence detectable).
In the implementation shown in Table 4-2, the relative intensity of the green fluorescent color ([…]) utilizing a red blocking filter (≧600 nm) was used as the indicator of the intensity of staining. The molar ratio is expressed as the ratio of xanthine concentration to 10 μM AO. Results were recorded as follows: 0=no blocking effect; 1=slight blocking; 2=moderate blocking; 3=almost total blocking (very slight green fluorescence detectable); 4=complete blockage (no green fluorescence detectable). *Kassoc values for the xanthines are taken from Table 2-1 and the Kassoc values for DNA were taken from Table 3-2.

[3] = test system: chicken erythrocyte nuclear chromatin; assay: Removal of acridine orange from stained chicken erythrocyte nuclear chromatin by xanthine rinse, fluorescence microscopy; details: for Nuclear color, Stain: before xanthine rinse; for Nuclear color, Re-stain: re-stained after xanthine rinse; for Nuclear color, After Rinse: xanthine rinse 50 mM, 1 hour, static
Procedure: Experiments were conducted to determine whether xanthines with known binding affinities to AO could compete with nuclear DNA for binding to AO and, therefore, be able to remove AO from its intercalation position within nuclear chromatin. Fluorescence microscopy was used to observe the fluorescent color produced by the AO-DNA complex following the staining of chicken erythrocyte nuclear chromatin with AO at both 5 μM and 5 mM.
Microscope slides smeared with chicken erythrocytes were stained with either 5 μM or 5 mM AO for a period of 30 minutes followed by three 10 second rinses in distilled water before drying at room temperature. Slides were then examined by fluorescence microscopy using a, Zeiss Model 63 Microscope with a xenon source fluorescent emitter. In some instances, a blocking filter was used to filter out fluorescence emission in the red and higher wavelengths. Photomicrographs were taken with Kodak Gold 35 mm ASA 1600 speed film, developed and color prints made. Comparative photomicrographs were taken at the same magnification and at the same exposure time. Selected photomicrographs were digitally scanned (Hewitt-Packard, Model 4L Scanner, Palo Alto, Calif.) and stored on 100 MB ZIP cartridges.
Slides were again examined by fluorescence microscopy and fluorescence color of the nuclei recorded. Slides were again stained with 5 mM AO then re-examined by fluorescence microscopy and fluorescence color of the nuclei recorded.
In the example shown in Table 4-3, the chicken erythrocytes were smeared and dried on a microscope slide prior to exposure to the AO solution for 30 minutes followed by water rinses to remove excess AO. Following drying, each slide was observed under fluorescence microscopy then placed in one of the xanthine solutions (50 ml volume) for 1 hour under static conditions, rinsed with water, then dried prior to being observed by fluorescence microscopy without a red blocking filter. Finally, each slide was restained following the initial staining procedures and again observed by fluorescence microscopy. Kassoc values are taken from Table 2-1 and are expressed in M^−1.

[4] = Table 2-2, Kassoc value with acridine orange (this report)
[5] = Table 4-2, in parentheses under compound, taken from Table 2-1
[6] = Table 4-3, taken from Table 2-1
[7] = Xanthine/AO molar ratio 5000:1, exposure 10 min
[8] = molar ratio 50:1, exposure 10 sec
[9] = molar ratio 50:1, exposure 1 min
[10] = molar ratio 50:1, exposure 10 min
[11] = molar ratio 500:1, exposure 10 sec
[12] = molar ratio 500:1, exposure 1 min
[13] = molar ratio 500:1, exposure 10 min
[14] = molar ratio 2500:1, exposure 10 sec
[15] = molar ratio 2500:1, exposure 1 min
[16] = molar ratio 2500:1, exposure 10 min
[17] = molar ratio 5000:1, exposure 10 sec
[18] = molar ratio 5000:1, exposure 1 min

Cn1c(=O)[nH]c2nc[nH]c2c1=O [1-methyl xanthine]
Kassoc [1, 4]: 79^a M^−1
Kassoc ± S.E. [1]: 79.2 ± 2.0 M⁻¹
complex formation / binding affinity with AO [1]: failed to exhibit any significant binding affinity for AO

Cn1c(=O)c2[nH]c(=O)[nH]c2n(C)c1=O [1,3-dimethyl-8-oxy xanthine]
Kassoc ± S.E. [1]: 38.5 M⁻¹ and 38.5 ± 2.2 M⁻¹
complex formation / binding affinity with AO [1]: failed to exhibit any significant binding affinity for AO

Clc1ncnc2nc[nH]c12 [6-chloro purine]
Kassoc ± S.E. [1]: 0 M⁻¹

O=c1[nH]c(=O)c2[nH]c(=O)[nH]c2[nH]1 [uric acid (8-oxy xanthine), 8-oxy xanthine]
Kassoc ± S.E. [1]: 0 M⁻¹
complex formation / binding affinity with AO [1]: did not complex with AO

Cn1c(=O)c2[nH]cnc2n(C)c1=O [1,3-dimethyl xanthine (theophylline), 1,3-dimethyl xanthine]
Kassoc [1, 4]: 157 M⁻¹
Kassoc [1, 5]: (157) M^−1
Kassoc [1, 6]: 161 M⁻¹
Kassoc ± S.E. [1]: 160.8 M⁻¹
blocking of AO intercalation [2, 7]: 0
blocking of AO intercalation [2, 8]: 0
blocking of AO intercalation [2, 9]: 0
blocking of AO intercalation [2, 10]: 0
blocking of AO intercalation [2, 11]: 0
blocking of AO intercalation [2, 12]: 0
blocking of AO intercalation [2, 13]: 0
blocking of AO intercalation [2, 14]: 0
blocking of AO intercalation [2, 15]: 0
blocking of AO intercalation [2, 16]: 0
blocking of AO intercalation [2, 17]: 0
blocking of AO intercalation [2, 18]: 0
Nuclear color, Stain ([3]; AO [5 μM] 30 minutes): Green
Nuclear color, Re-stain ([3]; AO [5 μM]): Green
Nuclear color, After Rinse ([3]; AO [5 μM]): Green
Nuclear color, Stain ([3]; AO [5 mM] 30 minutes): Red
Nuclear color, Re-stain ([3]; AO [5 mM]): Red
Nuclear color, After Rinse ([3]; AO [5 mM]): Red

Cn1c(=O)c2c(n(C)c1=O)n(C)c(=O)n2C [1,3,7,9-tetramethyl-8-oxy xanthine]
Kassoc [1, 4]: 552 M⁻¹
Kassoc [1, 5]: (552) M^−1
Kassoc [1, 6]: 552 M⁻¹
Kassoc ± S.E. [1]: 551.5 ± 9.0 M⁻¹
Kassoc ± S.E. ([1]; listed as 1,3,7,9-tetramethyl uric acid): 552 M⁻¹
blocking of AO intercalation [2, 7]: 2
blocking of AO intercalation [2, 8]: 0
blocking of AO intercalation [2, 9]: 0
blocking of AO intercalation [2, 10]: 0
blocking of AO intercalation [2, 11]: 0
blocking of AO intercalation [2, 12]: 0
blocking of AO intercalation [2, 13]: 0
blocking of AO intercalation [2, 14]: 0
blocking of AO intercalation [2, 15]: 1
blocking of AO intercalation [2, 16]: 1
blocking of AO intercalation [2, 17]: 2
blocking of AO intercalation [2, 18]: 2
effect of xanthine rinse on fluorescence of AO stained nuclear chromatin ([3]; 50 mM xanthine rinse): removal of most, if not all, green and red color
Nuclear color, Stain ([3]; AO [5 μM] 30 minutes): Green
Nuclear color, Re-stain ([3]; AO [5 μM]): Green
Nuclear color, After Rinse ([3]; AO [5 μM]): None
Nuclear color, Stain ([3]; AO [5 mM] 30 minutes): Red
Nuclear color, Re-stain ([3]; AO [5 mM]): Red
Nuclear color, After Rinse ([3]; AO [5 mM]): None

Cn1cnc2ncnc-2c1N [1-methyl-6-amino purine]
Kassoc ± S.E. [1]: ~14 M⁻¹

Cn1cnc2[nH]c(=O)[nH]c(=O)c21 [7-methyl xanthine]
Kassoc ± S.E. [1]: 0 M⁻¹
complex formation / binding affinity with AO [1]: little or no affinity to complex with AO

COc1nc(N)nc2nc[nH]c12 [2-amino-6-methoxy purine]
Kassoc ± S.E. [1]: ~2 M⁻¹

Cc1ncnc2nc[nH]c12 [6-methyl purine]
Kassoc ± S.E. [1]: 0 M⁻¹

Cn1c(=O)c2[nH]c(Cl)nc2n(C)c1=O [1,3-dimethyl-8-chloro xanthine]
Kassoc ± S.E. [1]: 412.5 ± 11.7 M⁻¹
complex formation / binding affinity with AO [1]: failed to exhibit any significant binding affinity for AO

Cn1c(=O)[nH]c2ncn(C)c2c1=O [1,7-dimethyl xanthine]
Kassoc [1, 4]: 155 M⁻¹
Kassoc ± S.E. [1]: 155.3 ± 3.1 M⁻¹

Cn1c(=O)[nH]c2[nH]c(=O)[nH]c2c1=O [1-methyl-8-oxy xanthine]
Kassoc ± S.E. [1]: 0 M⁻¹
complex formation / binding affinity with AO [1]: failed to exhibit any significant binding affinity for AO

c1ncc2[nH]cnc2n1 [Purine]
Kassoc ± S.E. [1]: ~2 M⁻¹

Cn1c(=O)[nH]c2[nH]c(=O)[nH]c(=O)c21 [7-methyl-8-oxy xanthine]
Kassoc ± S.E. [1]: 0 M⁻¹
complex formation / binding affinity with AO [1]: little or no affinity to complex with AO

Cn1c(=O)[nH]c(=O)c2[nH]cnc21 [3-methyl xanthine]
complex formation / binding affinity with AO [1]: little or no affinity to complex with AO
